“Also recorded” adds a separate entry of the source.
How the values were obtained:
[1] = biological target: T1, G protein-coupled estrogen receptor (GPER) (Homo sapiens, UniProt Q99527); experiment: HTRF cAMP formation assay in HL-60 cells; assay type: cell-based; conditions: values with * unexplained
T1 construct: siRNA was used to knock-down expression of GPER; endogenous in cells; host or cells: HL-60 (human myelocytic leukemia) cells
Description: For cAMP formation studies to determine potentcy, a homogeneous time resolved fluorescence (HTRF®) components for cAMP was purchased by CisBio (Bedford, MA). HL-60 cells were grown in 10% charcoal-stripped RPMI media for 72 hours prior to assays. Cells were centrifuged and counted with a hemocytometer from Hausser Scientific (Horsham, PA). The total number of cells needed to complete the assay was determined based upon 8,000 cells/well. The determined number of cells was diluted in 5:1 (5×) stimulation buffer contain 500 μM of 3-isobutyl-1-methylxanthine (IBMX) (Sigma Aldrich, Saint Louis, MO). To an HTRF 96-well low volume white plate from CisBio, 2 μL of (5×) agonist was added to the designated wells, followed by 8 μL of col cell suspension. Two controls were run during the experiment to establish basal cAMP formation and […] cAMP with the use of 20 μM forskolin. Cells were covered with a clear plastic film and incubated at 37° C. for 15 mins. During the 15 minutes incubation a 4:1 solution of lysis buffer to dye was prepared individually. After the 15 minute incubation 5 μL of lysis buffer/cAMP-d2 (acceptor) and 5 μL of lysis buffer/monocolonal anti-cAMP Eu3^+ cryptate (donor) were added to all wells. Once added, the plate was sealed, covered with aluminum foil, and incubated at room temperature for 30 mins. After the allotted time cells were read using Flexstation3 and with λex 314 nm and λem 665 nm/λem 620. Antagonism assay format varied slightly. […] To the plate, 2 μL of (5×) antagonist were added dose wise followed by the addition of 6 μL of cold cell suspension to all wells. Controls from the agonism assay remained the same in the antagonism assay. Cells and antagonists were incubated for 20 minutes at 37° C. […] Similar to the agonism assay a 4:1 ratio of lysis buffer to donor/acceptor were prepared. Following the previous incubation period, 5 μL of lysis buffer/cAMP-d2 (acceptor) and 5 μL of lysis buffer/monocolonal anti-cAMP Eu3^+ cryptate (donor) were added to all wells. Cells were allowed to equilibrate at room temperature for 30 minutes before being read at λex 314 nm and λem 665 nm/λem 620.
(§1) Calcium mobilization signal was assessed with the use of 0.1% pluronic acid and 5 μM Indo-1AM, a ratiometric dye. The EC50 values were determined based upon triplicate runs on triplicate plates. […] Cyclic AMP formation through the Gi/o-pathway was monitored utilizing a homogenous time-resolved fluorescence assay purchased from CisBio. A triplicate was performed and an EC50 value was calculated. […] The EC50 values were determined based upon triplicate runs on a triplicate plates.

GPER [2] = biological target: T2, GPER (Homo sapiens, UniProt Q99527); experiment: calcium mobilization assay, agonists tested against EC50 of GPER antagonist G-36; assay type: cell-based; conditions: for change in calcium efflux in response to G-36: agonist at 100 nM against EC50 of G-36, normalized; for calcium signal when antagonized with G-36: concentration not given
T2 construct: siRNA was used to knock-down expression of GPER; endogenous in cells; host or cells: HL-60 (human myelocytic leukemia) cells
T2 sequence (Q99527 whole entry): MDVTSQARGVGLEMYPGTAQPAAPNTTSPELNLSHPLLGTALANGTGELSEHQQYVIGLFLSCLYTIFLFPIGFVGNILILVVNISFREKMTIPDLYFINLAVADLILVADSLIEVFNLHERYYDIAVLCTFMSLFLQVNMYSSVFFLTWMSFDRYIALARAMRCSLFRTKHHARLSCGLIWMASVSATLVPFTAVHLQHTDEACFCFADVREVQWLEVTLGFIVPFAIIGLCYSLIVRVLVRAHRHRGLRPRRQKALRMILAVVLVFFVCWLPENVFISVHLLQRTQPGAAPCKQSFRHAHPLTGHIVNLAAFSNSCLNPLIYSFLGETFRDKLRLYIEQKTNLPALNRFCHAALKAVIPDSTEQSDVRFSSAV
Description: Each signal was normalized to the baseline signaling of G-36 and the maximum signal achieved by the specific agonist. Results are shown at 100 nM.
Calcium mobilization signal was assessed with the use of 0.1% pluronic acid and 5 μM Indo-1AM, a ratiometric dye. The EC50 values were determined based upon triplicate runs on triplicate plates. […] Cyclic AMP formation through the Gi/o-pathway was monitored utilizing a homogenous time-resolved fluorescence assay purchased from CisBio. A triplicate was performed and an EC50 value was calculated. […] The EC50 values were determined based upon triplicate runs on a triplicate plates. To confirm that calcium efflux originated from activation of the G protein-coupled estrogen receptor (GPER), a known selective antagonist, G-36 was used to antagonize the signal. […] Additional data can be found in FIG. 9. […] Without wishing to be bound by any theory, it is believed that within the new functionalization of the scaffold the lone pair on the oxygen of furfuran ring system and the nitrogen on pyridinyl ring system work to activate the receptor. […] Based upon neurite outgrowth studies and without wishing to be bound by any theory, it is believed that the compounds may aid in the elongation and connectivity of neurons. This has implication in a variety of neurodegenerative diseases, such as Alzheimer's disease and Parkinson's disease, but also psychiatric illnesses including Austism and Schizophrenia.

ERα = biological target: T3, ERα (Homo sapiens, UniProt P03372); experiment: ERα PolarScreen fluorescence polarization competitor assay; assay type: binding; conditions: duplicate
T3 construct: purchased Invitrogen (Carlsbad, CA)
T3 sequence (P03372 1-595): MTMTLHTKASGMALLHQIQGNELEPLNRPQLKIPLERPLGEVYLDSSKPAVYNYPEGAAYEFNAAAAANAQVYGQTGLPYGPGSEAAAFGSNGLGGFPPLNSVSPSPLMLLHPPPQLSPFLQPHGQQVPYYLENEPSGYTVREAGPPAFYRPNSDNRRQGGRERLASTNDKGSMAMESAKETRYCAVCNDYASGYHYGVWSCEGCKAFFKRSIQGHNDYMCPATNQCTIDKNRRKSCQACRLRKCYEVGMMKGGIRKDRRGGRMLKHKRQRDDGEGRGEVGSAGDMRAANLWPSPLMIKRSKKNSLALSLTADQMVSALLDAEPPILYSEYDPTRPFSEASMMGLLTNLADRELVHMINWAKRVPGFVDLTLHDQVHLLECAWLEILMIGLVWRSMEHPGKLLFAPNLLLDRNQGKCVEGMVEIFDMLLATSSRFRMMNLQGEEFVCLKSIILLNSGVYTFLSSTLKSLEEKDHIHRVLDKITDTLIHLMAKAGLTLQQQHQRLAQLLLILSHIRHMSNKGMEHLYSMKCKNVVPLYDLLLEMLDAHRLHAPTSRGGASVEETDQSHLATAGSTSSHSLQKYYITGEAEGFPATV
Description: (§2) FIGS. 3A & 3B show fluorescence polarization studies performed on classical estrogen receptors, ERα and ERβ, to determine off-target binding. Studies were performed in duplicate. […] Overall, it appears that compound 1 binds greater to ERβ than ERα and compound 2 binds to ERα but not ERβ.
(§3) The ERα and ERβ PolarScreen™ Competitor Assays by Invitrogen (Carlsbad, CA) were purchased and utilized to determine binding to the classical nuclear esetrogen recetors, ERα and ERβ. The concentrations of the ERα and ERβ enzyme varied between the two assays. A 4× sample of ERα was prepared for a final concentration of 75 nM. Conversely, a 4× sample of ERβ was prepared for a final concentration of 23 nM within the assay. For both ERα and ERβ a 4× aliquot of Fluoromone was prepared for a final assay concentration of 4.5 nM. Despite the differences in concentration of ERα and ERβ, the binding assay protocol for the two different enzymes remained the same. Drug dilutions were prepared for a 2× dilution in the ER specific buffer that was provided within the assay kit. In addition to the drug dilutions a 2× aliquot of Fluoromone was prepared by adding 10 uL of 4× with 10 uL of ER specific buffer. A 2× dilution of enzyme and fluorophore was achieved by adding equal portions of each to each other. […] The plate was incubated at RT for 2 hours before being read with λex 485 nm and λem 535 nm.

[3] = biological target: T1, G protein-coupled estrogen receptor (GPER); experiment: calcium mobilization assay in HL-60 cells (Indo-1AM); assay type: cell-based; conditions: triplicate runs on triplicate plates, read-out: EC50 (Ca^2+)
Description: For the calcium mobilization studies, Human Myelocytic Leukemia (HL-60) cells were grown in phenol red free media containing 10% activated fetal bovine serum (FBS), 1% Pen-Strep, and 1% Glutamax. Cells were grown to no more than 1×10^6 cells/mL to prevent differentiation before being split. Prior to assay cells were transferred to phenol red free media containing charcoal-stripped FBS. On the day of the assay cells were centrifuged down at 16.4 G for 5 minutes and washed with 50:1 HBSS/HEPES. Cells were resuspended at 1×10^7 cells/mL in 50:1 HBSS/HEPES. To the resuspended cells, […] pluronic acid and 5 uM of fluorescent calcium indicator, Indo-1AM, were added. The dye solution was incubated for 0.5 hrs at room temperature with rocking. After 30 minutes cells were spun down, and resuspended in 50:1 HBSS/HEPES. Cells were placed on ice for at least 5 minutes and then resuspended in 8.5 mL of 50:1 HBSS/HEPES for agonism assays. For agonism assays 160 μL of cell suspension were added to a 96-well plate and were incubated at […] for 20 minutes in a FlexStation® 3 plate reader (Molecular Devices). Inside the plate reader, 40 μL of agonist were added to each well and excited with 350 nm and read at emissions of 405 nm and 490 nm.
as §1

ERβ = biological target: T4, ERβ (Homo sapiens, UniProt Q92731); experiment: ERβ PolarScreen fluorescence polarization competitor assay; assay type: binding; conditions: duplicate
T4 construct: purchased Invitrogen (Carlsbad, CA)
T4 sequence (Q92731 whole entry): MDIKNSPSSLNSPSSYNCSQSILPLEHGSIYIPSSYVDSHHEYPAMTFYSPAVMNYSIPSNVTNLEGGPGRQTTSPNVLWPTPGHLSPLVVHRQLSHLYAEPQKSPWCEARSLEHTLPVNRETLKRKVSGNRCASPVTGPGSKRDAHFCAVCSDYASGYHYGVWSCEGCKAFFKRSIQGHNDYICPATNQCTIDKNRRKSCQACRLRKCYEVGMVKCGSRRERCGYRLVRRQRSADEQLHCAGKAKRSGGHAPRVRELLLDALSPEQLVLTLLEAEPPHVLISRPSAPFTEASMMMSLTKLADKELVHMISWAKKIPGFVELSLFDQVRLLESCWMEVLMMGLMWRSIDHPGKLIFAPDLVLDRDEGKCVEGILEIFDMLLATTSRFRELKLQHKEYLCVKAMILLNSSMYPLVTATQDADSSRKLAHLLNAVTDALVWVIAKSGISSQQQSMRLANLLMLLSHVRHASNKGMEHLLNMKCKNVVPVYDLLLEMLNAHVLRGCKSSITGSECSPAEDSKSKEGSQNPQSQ
Description: as §2, §3

GPER [4] = biological target: T2, GPER; experiment: calcium mobilization after siRNA knock down of GPER in HL-60 cells; assay type: cell-based; conditions: HL-60 cells not treated with siRNA; 1 μM
GPER [5] = biological target: T2, GPER; experiment: cAMP competition study with selective GPER antagonist in HL-60 cells; assay type: cell-based; conditions: EC50 of G-36 plus 1 μM agonist, compared to agonist alone at 1 μM
Description: In cAMP competition studies HL-60 cells were grown in 10% charcoal-stripped RPMI media for 72 hours prior to assays. Cells were centrifuged and counted with a hemocytometer from Hausser Scientific (Horsham, PA). The total number of cells needed to complete the assay was determined based upon 8,000 cells/well. The determined number of cells was diluted in 5:1 (5×) stimulation buffer contain 500 μM of 3-isobutyl-1-methylxanthine (IBMX) (Sigma Aldrich, Saint Louis, MO). […] Following the incubation period, 2 μL of various concentrations of compound (5×) were added. […] The plate was sealed and incubated at 37° C. for 10 minutes. After 10 minutes a 4:1 ratio of lysis buffer to donor/acceptor were individually prepared and 5 μL of lysis buffer/cAMP-d2 (acceptor) and 5 μL of lysis buffer/monocolonal anti-cAMP Eu3+ cryptate (donor) were added to all wells. The assay plate was sealed and incubated at room temperature for 30 minutes before being read at λex 314 nm and λem 665 nm/λem 620.

[6] = system: E18 embryonic rat cortical neurons; experiment: neurite outgrowth in E18 embryonic rat neurons; assay type: cell-based; conditions: for neurite outgrowth with GPER antagonist G-15: 100 nM agonist plus 100 nM G-15; for neurite outgrowth: 100 nM agonist, 72 hours, compared to vehicle control

T1 sequence (Q99527 whole entry): as the sequence (Q99527 whole entry) above

SMILES | EC50 [1] | change in calcium efflux in response to G-36 (GPER [2]) | binding to ERα (ERα) | EC50 [3] | binding to ERβ (ERβ) | calcium compared to the vehicle control, no siRNA (GPER [4]) | activation of adenylate cyclase and cAMP formation when challenged against G-36 (GPER [5]) | neurite outgrowth with GPER antagonist G-15 [6] | neurite outgrowth [6] | calcium signal when antagonized with G-36 (GPER [2])
CC(C)c1ccc(NCc2ccc(CO)o2)c(C2CCCCC2)c1 [Compound 1] | 1590 nM | significant increase | exhibit binding; also recorded: significant binding | 1300 ± 322 nM | exhibit binding; also recorded: appeared to show binding | no statically significant difference | statistically significant reduction |  |  | 
CC(C)c1ccc(NCc2ccc(C3OCCO3)o2)c(C2CCCCC2)c1 [Compound 3] | 948 ± 272 nM | significant reduction |  | 94.4 ± 11.8 nM |  |  |  |  |  | 
CC(=O)c1ccc2c(c1)C1C=CCC1C(c1cc3c(cc1Br)OCO3)N2 (centres unmarked) [Compound G-1, reference compound] |  |  |  |  |  |  |  | reduction in signal | statistically significant increase | 
COCc1ccc(CNc2ccc(C(C)C)cc2C2CCCCC2)o1 [Compound 7] | 830 ± 273 nM | statistically significant decrease |  | 60.1 ± 18.2 nM |  |  |  |  |  | reduced to basal response
CCOCc1ccc(CNc2ccc(C(C)C)cc2C2CCCCC2)o1 [Compound 37] |  |  |  |  |  |  |  | significantly diminished | statistically significant increase | 
CC(C)c1ccc(NCc2ccoc2)c(C2CCCCC2)c1 [Compound 26] |  |  |  |  |  |  |  | significantly diminished | statistically significant increase | 
COc1ccc(CNc2ccc(C(C)C)cc2C2CCCCC2)cn1 [Compound 6] | 1250 ± 304 nM |  |  | 52.1 ± 12.1 nM |  |  |  |  |  | 
CC(C)c1ccc(NCc2ccoc2)c(C2CCCCC2)c1 [Compound 2] | 1190 nM | significant increase | exhibit binding; also recorded: significant binding | 699 ± 85 nM | exhibit binding; also recorded: binding trend for compound 2 was less consistent | no statically significant difference | statistically significant reduction | reduction in signal | statistically significant increase | reduced to basal response
CCOCc1ccc(CNc2ccc(C(C)C)cc2C2CCCCC2)o1 [Compound 5] | 389 ± 61.6 nM | statistically significant decrease |  | 50.8 ± 5.81 nM |  |  |  | reduction in signal | statistically significant increase | reduced to basal response
CC(C)c1ccc(NCc2ccc(C3CCCCO3)o2)c(C2CCCCC2)c1 (centres unmarked) [Compound 4] | 290 ± 58 nM | significant reduction |  | 38.7 ± 12.9 nM |  |  |  |  |  | 

Reference: patent US12037327B2, “Compounds and methods targeting GPER for treatment of diseases associated with calcium” (Saint Louis University, priority 2018, dated 2024)
